test system: HeLa cell line; test: Production of extracellular vesicles, observed by optical microscope (bright field); type: cell-based, human; conditions: solution of Example 1 (250 mM sucrose), peptide final concentration 20 μM, after 10 minutes
Description: After the HeLa cell line was cultured in a 6-well plate, the culture was removed, and then the HeLa cell line was treated with the solution in Example 1.
The control group was not treated with any peptide, and the experiment group was treated with eMTDΔ4 peptide of SEQ ID NO: 2 (final concentration: 20 μM). After 10 minutes, the generation of extracellular vesicles was observed by an optical microscope (bright field), and the observation results are shown in FIG. 1.
Extracellular vesicle production was carried out by the experimental method of Experimental Example 2-1 using the R(8):MTD peptide of SEQ ID NO: 4 and the solutions of Example 1 and Comparative Examples 1 to 18, and the results are shown in FIGS. 2A to 2S.
Extracellular vesicle production was carried out by the experimental method of Example 2-1 using the R(8):MTD peptide of SEQ ID NO: 4 and the solutions of Examples 1 to 3 on Table 3, and the results are shown in FIGS. 3A to 3C.

In the case of RRRRRRRRKLLNLISKLF [R(8):MTD], the “generation of extracellular vesicles” value was “many extracellular vesicle particles were generated”.

same assay, conditions: solutions of Comparative Examples 1 to 18 (FIGS. 2B to 2S)

With RRRRRRRRKLLNLISKLF [R(8):MTD] the “generation of extracellular vesicles” value was “extracellular vesicle particles were not generated”.

same assay, conditions: solutions of Examples 1 to 3, excess of glucose or sorbitol instead of sucrose

RRRRRRRRKLLNLISKLF [R(8):MTD] was tested, and the “generation of extracellular vesicles” value was “extracellular vesicles were well formed”.

test system: 293-HEK cell line; test: Extracellular vesicle output quantified by Bradford solution; type: cell-based, human; conditions: solution of Example 1, peptide 10 μM
Description: The 293-HEK cell line was cultured in a 6-well plate at a rate of 2×10^5 cells/mL, and the next day, the cell line was treated with the solution of Example 1 and a peptide of any one of SEQ ID NOs: 1 to 21. […], the solution was removed, followed by centrifugation at an RCF of 12000, and the extracellular vesicles were quantified using the supernatant by Bradford solution.

Going from “AEYRKLLNLISKLF (TU128) [Noxa protein-derived derivative peptide, 14aa]” to “AEYSRKLLNLISKLF (TU135) [Noxa protein-derived derivative peptide, 15aa]”, the “Amount of proteins contained in extracellular vesicles” value (“Amount of proteins contained” for short) falls from 3.86 µg/µL to 1.81 µg/µL.

Compared with “AFFLRKLLNLISKLF (TU151) [Noxa protein-derived derivative peptide, 15aa]”, “AHFLRKLLNLISKLF (TU149) [Noxa protein-derived derivative peptide, 15aa]” is higher in “Amount of proteins contained” value: 1.51 µg/µL for the first, 1.71 µg/µL for the second.

Going from “GLKSLRKLLNLISKLF (TU111) [Noxa protein-derived derivative peptide, 16aa]” to KLLNLISKLF [MTD], the “Amount of proteins contained” value falls from 4.17 µg/µL to 0.80 µg/µL.

Compared with “KLLNLWSLLFGYTIK (TU103) [Noxa protein-derived derivative peptide, 15aa]”, “KLLNLWSLLKGYTIK (TU124) [Noxa protein-derived derivative peptide, 15aa]” is higher in “Amount of proteins contained” value: 0.75 µg/µL for the first, 3.30 µg/µL for the second.

Compared with “KLNFAEFLRNLISKLF (TU166) [Noxa protein-derived derivative peptide, 16aa]”, “KLNFRLGLRSLREKLF (TU168) [Noxa protein-derived derivative peptide, 16aa]” is lower in “Amount of proteins contained” value: 5.77 µg/µL for the first, 0.77 µg/µL for the second.

First: KLNFRQKLARLLTKLF (TU171) [Noxa protein-derived derivative peptide, 16aa]
Second: KVSIFLKNLISKLF (TU156) [Noxa protein-derived derivative peptide, 14aa]
The “Amount of proteins contained” value of the first is higher: 2.64 µg/µL for the first, 1.17 µg/µL for the second.

First: LNFKWYSLLNLISKLF (TU172) [Noxa protein-derived derivative peptide, 16aa]
Second: LRSLRDKLLNLISKLF (TU107) [Noxa protein-derived derivative peptide, 16aa]
The “Amount of proteins contained” value of the first is lower: 0.83 µg/µL for the first, 5.58 µg/µL for the second.

Going from “MEWWYLLKLLNLISKLF (TU104) [Noxa protein-derived derivative peptide, 17aa]” to “QFAQYLRNLISKLF (TU155) [Noxa protein-derived derivative peptide, 14aa]”, the “Amount of proteins contained” value rises from 0.62 µg/µL to 1.56 µg/µL.

In the case of “YWLPLRKLLNLISKLF (TU146) [Noxa protein-derived derivative peptide, 16aa]”, the “Amount of proteins contained” value was 2.01 µg/µL.

same assay, conditions: solution of Example 1, peptide 20 μM

Compared with “AEYRKLLNLISKLF (TU128) [Noxa protein-derived derivative peptide, 14aa]”, “AEYSRKLLNLISKLF (TU135) [Noxa protein-derived derivative peptide, 15aa]” is lower in “Amount of proteins contained” value: 5.29 µg/µL for the first, 4.41 µg/µL for the second.

Going from “AFFLRKLLNLISKLF (TU151) [Noxa protein-derived derivative peptide, 15aa]” to “AHFLRKLLNLISKLF (TU149) [Noxa protein-derived derivative peptide, 15aa]”, the “Amount of proteins contained” value rises from 1.30 µg/µL to 2.00 µg/µL.

Compared with “GLKSLRKLLNLISKLF (TU111) [Noxa protein-derived derivative peptide, 16aa]”, KLLNLISKLF [MTD] is lower in “Amount of proteins contained” value: 4.98 µg/µL for the first, 1.17 µg/µL for the second.

Going from “KLLNLWSLLFGYTIK (TU103) [Noxa protein-derived derivative peptide, 15aa]” to “KLLNLWSLLKGYTIK (TU124) [Noxa protein-derived derivative peptide, 15aa]”, the “Amount of proteins contained” value rises from 0.40 µg/µL to 5.02 µg/µL.

Going from “KLNFAEFLRNLISKLF (TU166) [Noxa protein-derived derivative peptide, 16aa]” to “KLNFRLGLRSLREKLF (TU168) [Noxa protein-derived derivative peptide, 16aa]”, the “Amount of proteins contained” value falls from 6.68 µg/µL to 2.17 µg/µL.

First: KLNFRQKLARLLTKLF (TU171) [Noxa protein-derived derivative peptide, 16aa]
Second: KVSIFLKNLISKLF (TU156) [Noxa protein-derived derivative peptide, 14aa]
The “Amount of proteins contained” value of the first is higher: 3.62 µg/µL for the first, 1.55 µg/µL for the second.

Going from “LNFKWYSLLNLISKLF (TU172) [Noxa protein-derived derivative peptide, 16aa]” to “LRSLRDKLLNLISKLF (TU107) [Noxa protein-derived derivative peptide, 16aa]”, the “Amount of proteins contained” value rises from 0.44 µg/µL to 6.69 µg/µL.

Going from “MEWWYLLKLLNLISKLF (TU104) [Noxa protein-derived derivative peptide, 17aa]” to “QFAQYLRNLISKLF (TU155) [Noxa protein-derived derivative peptide, 14aa]”, the “Amount of proteins contained” value rises from 0.75 µg/µL to 1.77 µg/µL.

With “YWLPLRKLLNLISKLF (TU146) [Noxa protein-derived derivative peptide, 16aa]” the “Amount of proteins contained” value was 2.89 µg/µL.

same assay, conditions: solution of Example 1, peptide 40 μM

Going from “AEYRKLLNLISKLF (TU128) [Noxa protein-derived derivative peptide, 14aa]” to “AEYSRKLLNLISKLF (TU135) [Noxa protein-derived derivative peptide, 15aa]”, the “Amount of proteins contained” value falls from 7.25 µg/µL to 6.54 µg/µL.

Compared with “AFFLRKLLNLISKLF (TU151) [Noxa protein-derived derivative peptide, 15aa]”, “AHFLRKLLNLISKLF (TU149) [Noxa protein-derived derivative peptide, 15aa]” is higher in “Amount of proteins contained” value: 1.40 µg/µL for the first, 2.57 µg/µL for the second.

First: GLKSLRKLLNLISKLF (TU111) [Noxa protein-derived derivative peptide, 16aa]
Second: KLLNLISKLF [MTD]
The “Amount of proteins contained” value of the first is higher: 6.44 µg/µL for the first, 2.87 µg/µL for the second.

Going from “KLLNLWSLLFGYTIK (TU103) [Noxa protein-derived derivative peptide, 15aa]” to “KLLNLWSLLKGYTIK (TU124) [Noxa protein-derived derivative peptide, 15aa]”, the “Amount of proteins contained” value rises from 0.55 µg/µL to 6.24 µg/µL.

Going from “KLNFAEFLRNLISKLF (TU166) [Noxa protein-derived derivative peptide, 16aa]” to “KLNFRLGLRSLREKLF (TU168) [Noxa protein-derived derivative peptide, 16aa]”, the “Amount of proteins contained” value falls from 8.10 µg/µL to 3.74 µg/µL.

Going from “KLNFRQKLARLLTKLF (TU171) [Noxa protein-derived derivative peptide, 16aa]” to “KVSIFLKNLISKLF (TU156) [Noxa protein-derived derivative peptide, 14aa]”, the “Amount of proteins contained” value falls from 5.30 µg/µL to 3.93 µg/µL.

Going from “LNFKWYSLLNLISKLF (TU172) [Noxa protein-derived derivative peptide, 16aa]” to “LRSLRDKLLNLISKLF (TU107) [Noxa protein-derived derivative peptide, 16aa]”, the “Amount of proteins contained” value rises from 0.59 µg/µL to 7.45 µg/µL.

Going from “MEWWYLLKLLNLISKLF (TU104) [Noxa protein-derived derivative peptide, 17aa]” to “QFAQYLRNLISKLF (TU155) [Noxa protein-derived derivative peptide, 14aa]”, the “Amount of proteins contained” value rises from 1.02 µg/µL to 2.85 µg/µL.

“YWLPLRKLLNLISKLF (TU146) [Noxa protein-derived derivative peptide, 16aa]” was tested, and the “Amount of proteins contained” value was 3.50 µg/µL.

test system: 293-HEK cell line; test: Extracellular vesicle size and quantity by Nanoparticle Tracking Analysis (NTA); type: cell-based, human; conditions: 50-fold diluted, solution of Example 1, peptide 20 μm, after 20 minutes
Description: After the 293-HEK cell line was cultured to 90% confluency (about 2×10^7 cells) in a 10-cm culture dish, the culture was removed, and the cells were treated with the eMTDΔ4 peptide (final concentration: 20 μm), which has been dissolved in 5 ml of the solution of Example 1. After 20 minutes, the solution was removed, followed by centrifugation at an RCF of 12000, and then the size and quantity of extracellular vesicles were measured using a Nanoparticle Tracking Analysis (NTA) system (Nanosight LM10, Malvern Instruments).

KLLNLISKLF [MTD] and “KWYAKLLNLISKLF (TU114) [Noxa protein-derived derivative peptide, 14aa]” are within error of each other in “Quantity of extracellular vesicles” value: 8.01e+08 ± 1.75e+07 mL⁻¹ for the first, 8.75e+08 ± 9.27e+07 mL⁻¹ for the second.

For “RPARPARGGKLLNLISKLF (TU17) [Noxa protein-derived derivative peptide, 19aa]”, the “Quantity of extracellular vesicles” value was 7.95e+08 ± 7.15e+07 mL⁻¹.

From patent US12280148B2, “Composition for promoting extracellular vesicle production containing peptide derived from noxa protein and method for producing extracellular vesicles by using same” (Exocalibre Therapeutics Co., Ltd., priority 2020, dated 2025)
